Experimental data from patent US20240156094A1, “MELATONIN COMPOSITION WITH METALS AND A METHOD FOR ENHANCING ENZYMATIC REACTIONS AND METABOLIC PATHWAYS IN PLANTS” (FERTIS INDIA PVT. LTD., priority 2021, published 2024).

Experiments:
Assay type in all cases: in vivo
paddy grains = assay: Analysis of micronutrient absorption levels in paddy grains by ICP; conditions: paddy grain powder, acid digest
Experimental: Analysis of Micronutrients in Paddy Samples by ICP (Inductive Coupled Plasma) Equipment.
The method include the steps of:— • 1. 1 gm of grain powder was added to 60 ml of perchloric acid and Nitric acid (9:1) and were digested overnight. • 2. Heat the mixtures at 100 c for 2 hours until vapors change from red to white color. • 3. The resultant solution was filtered through a Whatman paper and makeup to 100 ml with 1% nitric acid. • 4. The solution was tested for micronutrients by ICP.

plants [1] = assay: Total protein content (Lowry method, absorbance at 660 nm); conditions: 1 g of sample in 25 ml
Experimental: Total protein content in the sample content were estimated by performing Lowry method which include the following steps:— • 1 g of samples in 25 ml were filtered through whatman filter paper 1 • 4.5 ml of a reagent comprising NaOH, sodium potassium tartrate, and CuSO4.5H2O were added and incubated for 10 mins. • After incubation, 0.5 ml of Folin-Ciocalteu's phenol reagent were added and incubated for 30 mins. • Absorbance was measured with UV Vis Spectrophotometer At 660 nm and a standard graph was plotted.

plants [2] = assay: Total polyphenol content (Folin-Ciocalteu, absorbance at 765 nm); conditions: 1 g test sample, 70% methanol extract
Experimental: Total polyphenol content were estimated by performing the following steps:— • 10-15 ml of 70% MeOH (70 ml methanol: 30 ml water) were added to 1 g of test sample • Filter through whatman filter paper 1 and was made up to 25 ml with 70% methanol. • 5 ml of folin ciocalteu's phenol reagent were added. • Incubation for 5 mins. • 4 ml of 7.5% Na2CO3 were added and incubated for 1 hr. • absorbance was measured at 765 nm.

COc1ccc2[nH]cc(CCNC(C)=O)c2c1 [Melatonin, N-Acetyl-5-methoxytryptamine]
Al (paddy grains): 241.3 ppm
B (paddy grains): 40.5 ppm
Ca (paddy grains): 405.7 ppm
Co (paddy grains): 15.4 ppm
Fe (paddy grains): 257.9 ppm
Mg (paddy grains): 697.2 ppm
Mn (paddy grains): 42.5 ppm
Zn (paddy grains): 29.1 ppm
Total Protein content in % (plants [1]): 0.076%
Total Phenol content in ppm (plants [2]): 18.6 ppm
